From ChEMBL document CHEMBL1135497, “Identification of potent and novel alpha4beta1 antagonists using in silico screening” (J Med Chem, 2002)

What follows are compounds tested against Integrin alpha-4/beta-1 (Homo sapiens, UniProt P05556+P13612) (assay: Inhibition of Very late antigen 4 (VLA-4) and VCAM-Ig fusion protein interaction).
Format: protein-complex assay

Chain of Integrin alpha-4/beta-1 (P05556 whole entry, the tested form may be a part): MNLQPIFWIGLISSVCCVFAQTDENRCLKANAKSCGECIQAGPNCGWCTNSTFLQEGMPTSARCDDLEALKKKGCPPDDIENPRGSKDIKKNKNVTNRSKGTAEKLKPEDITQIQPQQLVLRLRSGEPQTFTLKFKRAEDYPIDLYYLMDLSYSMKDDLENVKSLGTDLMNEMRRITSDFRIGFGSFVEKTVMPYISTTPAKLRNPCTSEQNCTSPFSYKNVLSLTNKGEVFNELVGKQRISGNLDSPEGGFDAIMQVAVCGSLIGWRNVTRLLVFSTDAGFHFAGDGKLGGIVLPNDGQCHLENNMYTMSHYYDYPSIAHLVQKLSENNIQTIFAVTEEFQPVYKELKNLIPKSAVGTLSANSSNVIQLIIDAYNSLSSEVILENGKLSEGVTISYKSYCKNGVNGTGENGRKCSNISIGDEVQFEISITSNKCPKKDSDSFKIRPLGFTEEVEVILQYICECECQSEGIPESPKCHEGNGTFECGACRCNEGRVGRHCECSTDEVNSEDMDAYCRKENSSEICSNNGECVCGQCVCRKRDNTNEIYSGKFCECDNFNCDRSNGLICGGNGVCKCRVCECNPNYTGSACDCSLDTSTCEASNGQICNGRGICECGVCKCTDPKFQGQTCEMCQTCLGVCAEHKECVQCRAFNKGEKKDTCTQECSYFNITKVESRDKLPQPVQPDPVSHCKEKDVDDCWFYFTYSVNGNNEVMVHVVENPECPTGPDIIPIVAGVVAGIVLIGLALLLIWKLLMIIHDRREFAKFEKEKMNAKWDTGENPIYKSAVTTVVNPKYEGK
Chain of Integrin alpha-4/beta-1 (P13612 whole entry, the tested form may be a part): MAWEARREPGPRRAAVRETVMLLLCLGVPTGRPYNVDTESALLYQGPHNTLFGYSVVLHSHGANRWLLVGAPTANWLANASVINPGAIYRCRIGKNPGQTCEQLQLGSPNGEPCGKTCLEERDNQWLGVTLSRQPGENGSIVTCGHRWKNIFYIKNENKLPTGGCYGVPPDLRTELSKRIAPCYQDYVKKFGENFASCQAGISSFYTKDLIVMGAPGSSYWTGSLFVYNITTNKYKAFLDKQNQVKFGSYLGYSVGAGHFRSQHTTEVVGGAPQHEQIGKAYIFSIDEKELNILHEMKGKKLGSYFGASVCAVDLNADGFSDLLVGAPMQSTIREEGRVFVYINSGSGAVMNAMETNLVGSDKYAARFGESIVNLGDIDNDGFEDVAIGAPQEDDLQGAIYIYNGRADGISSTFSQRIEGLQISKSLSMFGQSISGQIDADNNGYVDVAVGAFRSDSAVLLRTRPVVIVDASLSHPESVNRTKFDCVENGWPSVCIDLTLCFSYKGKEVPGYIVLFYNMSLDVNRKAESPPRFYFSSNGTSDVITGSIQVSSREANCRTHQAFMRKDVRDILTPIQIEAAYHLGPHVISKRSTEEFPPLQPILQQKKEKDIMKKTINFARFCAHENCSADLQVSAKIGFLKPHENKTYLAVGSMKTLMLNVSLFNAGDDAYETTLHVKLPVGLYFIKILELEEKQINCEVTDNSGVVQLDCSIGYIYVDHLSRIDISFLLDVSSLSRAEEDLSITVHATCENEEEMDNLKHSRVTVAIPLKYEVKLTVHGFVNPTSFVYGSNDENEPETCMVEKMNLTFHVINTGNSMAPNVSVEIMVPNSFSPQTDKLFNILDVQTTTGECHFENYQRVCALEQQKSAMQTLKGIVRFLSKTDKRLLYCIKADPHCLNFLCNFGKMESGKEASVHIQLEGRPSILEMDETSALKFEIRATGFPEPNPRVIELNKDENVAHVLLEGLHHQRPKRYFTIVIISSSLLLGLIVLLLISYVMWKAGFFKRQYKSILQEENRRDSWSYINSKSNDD

| Structure (SMILES) | IC50 [nM] |
| --- | --- |
| Cc1ccccc1NC(=O)Nc1ccc(CC(=O)Nc2cccc(C(C)CC(=O)O)c2)cc1 (configuration not stated) | 2500 |
| Cc1ccccc1NC(=O)Nc1ccc(CC(=O)Nc2cn(CCC(=O)O)c(C)n2)cc1 | 3000 |
| C=C(S/C(=N\C(=O)Cc1ccc(NC(=O)Nc2ccccc2C)cc1)NCCC(=O)O)c1ccccc1 | 20000 |
| Cc1ccccc1NC(=O)Nc1ccc(CC(=O)Nc2ccc3cnn(C(=O)NCC(=O)O)c3c2)cc1 | 800 |
| Cc1ccccc1NC(=O)Nc1ccc(CC(=O)Nc2cccc(NC(=O)NCC(=O)O)c2)cc1 | 67 |
| Cc1ccccc1NC(=O)Nc1ccc(CC(=O)Nc2nc(CC(=O)O)cs2)cc1 | 15000 |
| CC(=O)NC(Cc1ccc(NC(=O)Cc2ccc(NC(=O)Nc3ccccc3C)cc2)cc1)C(=O)O (configuration not stated) | 58 |
| Cc1ccccc1NC(=O)Nc1ccc(CC(=O)Nc2cccc(C(O)CC(=O)O)c2)cc1 (configuration not stated) | 2000 |
| Cc1ccccc1NC(=O)Nc1ccc(CC(=O)Nc2nnc(SCC(=O)O)s2)cc1 | 2300 |
| Cc1ccccc1NC(=O)Nc1ccc(CC(=O)Nc2ccc(C(C)CC(=O)O)cc2)cc1 (configuration not stated) | 1.3 |
| Cc1ccccc1NC(=O)Nc1ccc(CC(=O)Nc2cccc(CCC(=O)O)c2)cc1 | 11400 |
| Cc1ccccc1NC(=O)Nc1ccc(CC(=O)Nc2cccc(C(=O)NCC(=O)O)c2)cc1 | 1200 |
